Legend:
Type in all cases: functional
[1] = species on record: Homo sapiens; experiment: Percent viscosity reduction after 15 min was tested for in vitro mucolytic activity using pooled human sputum adjusted to pH 7.5 and compared with saline by 0.03 M solution
[2] = species on record: Homo sapiens; experiment: Percent viscosity reduction after 5 min was tested for in vitro mucolytic activity using pooled human sputum adjusted to pH 7.5 and compared with saline by 0.03 M solution of the compound
[3] = species on record: Homo sapiens; experiment: Percent viscosity reduction after 10 min was tested for in vitro mucolytic activity using pooled human sputum adjusted to pH 7.5 and compared with saline by 0.03 M solution of the compound
[4] = species on record: Homo sapiens; experiment: Percent viscosity reduction after 15 min was tested for in vitro mucolytic activity using pooled human sputum adjusted to pH 7.5 and compared with saline by 0.03 M solution of the compound
[5] = species on record: Homo sapiens; experiment: Percent viscosity reduction after 15 min was tested for in vitro mucolytic activity using pooled human sputum adjusted to pH 7.5 and compared with 0.06 M NAC

O=C([O-])CNC(=O)c1cccc(NC(=O)CS)c1.[Na+]
Viscosity reduction [1]: 56%

O=C(O)CNC(=O)c1cccc(NC(=O)CS)c1
Viscosity [2]: 64%
Viscosity reduction [1]: 60%
Viscosity [3]: 84%
Viscosity [4]: 90%

N.O=C(O)CNC(=O)c1cccc(NC(=O)CS)c1
Viscosity reduction [1]: 59%

O=C(O)CNC(=O)c1ccc(NC(=O)CS)cc1
Viscosity reduction [1]: 73%
Viscosity [5]: 15%

NCCN.O=C(O)CNC(=O)c1cccc(NC(=O)CS)c1
Viscosity reduction [1]: 44%

CC(=O)N[C@@H](CS)C(=O)O [ACETYLCYSTEINE]
Viscosity [2]: 27%
Viscosity [3]: 38%
Viscosity [4]: 31%

Reference: ChEMBL document CHEMBL1123116, “N-[[(Mercaptoacetyl)amino]benzoyl]glycines as mucolytic agents” (1985)
